Paper PMC5607274, “An iterative compound screening contest method for identifying target protein inhibitors using the tyrosine-protein kinase Yes” (Scientific Reports, 2017)
pIC50: −log10 of the molar value.

Experiments:
[1] = target: T1, human recombinant Yes [a.a. 2–543 (end)] (Homo sapiens, UniProt P07947); experiment: ADP-Glo kinase assay, IC50 determination (dose-response curves) for Yes; format: biochemical; conditions: for dose-response relationship (DRR): IC50 determination; for "inhibition activity" in the whole range of concentrations: dose-response test, no DRR; for pIC50: 5.5-nmol L−1 Yes, 0.013-mmol L−1 ATP, 0.2-mg mL−1 substrate (poly Glu-Tyr, 4:1)
T1 construct: human recombinant Yes [a.a; 2–543 (end)]; purchased BPS Bioscience 40488
T1 sequence (P07947 2-543): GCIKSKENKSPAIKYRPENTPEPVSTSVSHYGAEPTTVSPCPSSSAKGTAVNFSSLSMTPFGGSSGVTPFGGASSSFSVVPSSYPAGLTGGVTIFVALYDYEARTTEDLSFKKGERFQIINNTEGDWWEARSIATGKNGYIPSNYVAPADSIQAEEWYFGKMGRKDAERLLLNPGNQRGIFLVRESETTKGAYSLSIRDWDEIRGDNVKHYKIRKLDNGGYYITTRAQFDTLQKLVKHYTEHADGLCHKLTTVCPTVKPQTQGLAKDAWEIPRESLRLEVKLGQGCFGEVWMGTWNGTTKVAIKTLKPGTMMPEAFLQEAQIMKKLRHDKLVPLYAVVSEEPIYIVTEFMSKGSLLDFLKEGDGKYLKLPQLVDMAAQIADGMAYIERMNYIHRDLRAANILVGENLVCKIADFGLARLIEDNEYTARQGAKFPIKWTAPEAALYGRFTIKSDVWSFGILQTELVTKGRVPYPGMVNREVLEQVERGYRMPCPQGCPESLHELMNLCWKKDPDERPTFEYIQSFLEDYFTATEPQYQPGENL
Method: All inhibitory assays of the phosphorylation activity of Yes were performed in accordance with the Promega Technical Manual for the ADP-Glo™ Kinase Assay (Fitchburg, WI, USA. Catalog number: V9102). The human recombinant Yes [a.a. 2–543 (end)] was purchased from BPS Bioscience (catalog number: 40488). The details of the assay protocol and reagent information are given elsewhere.
The screening was conducted in three steps consisting of the first screening, the second screening, and the IC50 determination, as can be illustrated in Fig. 1b. First, we determined the inhibition rates of the 1,991 compounds. Each compound was placed in 4 wells of a 384-well plate. In total, 80 compounds were assayed on one plate and the other wells were used for positive and negative controls. The compounds were randomly placed on plates so that compounds proposed by one group were not placed on a plate together. A mean of four inhibition rates for each compound was compared to criteria for the first screening. […] Second, the inhibition rates of the screened compounds were determined on one plate using the same procedure of the first screening, where compounds were dissolved from fresh powder. […] Screened compounds were then evaluated for their IC50 values. […]
determine their IC50 values. Each dose-response curve was initially built using 8-point, 2-fold serial dilutions starting at 100 μmol L−1, with each concentration point in 4 […]
Assay was carried out under the same conditions as the primary screening, in summary, the final reagent concentrations were 5.5-nmol L−1 Ye s , 0.013-mmol L−1 ATP, and 0.2-mg mL−1 substrate (poly Glu-Tyr peptides, Glu:Tyr=4:1).
The curves were analyzed by GraphPad Prism (sigmoidal fit with variable slope). IC50 […]
standard deviations of the measurements.

[2] = target: T1, human recombinant Yes [a.a. 2–543 (end)]; experiment: ADP-Glo kinase assay, inhibition rates of Yes phosphorylation activity (first and second screening); format: biochemical; conditions: 10 μmol L−1 compound; for First screening IR (inhibition rate): mean of n = 4 wells; for Second screening IR (inhibition rate): dissolved from fresh powder, n = 4
Outline: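 ADP-Glo luminescence measured inhibition of human recombinant Yes (a.a. 2–543) phosphorylation activity. In the first screen, each compound ran in 4 wells and inhibition rates were averaged. The second screen retested hits as compounds dissolved from fresh powder.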

`Fc1ccc(-c2cc3ncnc(N/N=C/c4ccncc4)c3s2)cc1` [Compound Z50080378] was tested, and the “dose-response relationship (DRR)” value [1] was “did not reveal a DRR”, the “"inhibition activity" in the whole range of concentrations” value (shortened to “"inhibition activity" in the whole range”) [1] was “around 50%” and the “First screening IR (inhibition rate)” value [2] was 67%. For the same compound, the “Second screening IR (inhibition rate)” value [2] was 55%.

In the case of `COc1ccc(Br)cc1/C=N/Nc1ncnc2nc[nH]c12` [Compound Z57745307], the “dose-response relationship (DRR)” value [1] was “did not reveal a DRR”, the “"inhibition activity" in the whole range” value [1] was “around 50%” and the “First screening IR (inhibition rate)” value [2] was 62%. The “Second screening IR (inhibition rate)” value [2] was 61%.

In the case of `O=C(CSc1ccc2ccccc2n1)Nc1nsc(-c2ccc(Cl)cc2)n1` [Compound Z275023406], the pIC50 [1] was 4.43, the “dose-response relationship (DRR)” value [1] was “good DRR” and the “First screening IR (inhibition rate)” value [2] was 67%. For the same compound, the “Second screening IR (inhibition rate)” value [2] was 64%.

`Cc1cc(N2CCc3c(ncn3C3CC3)C2)c2cc(OC(F)F)ccc2n1` [Compound Z1252403274] was tested, and the pIC50 [1] was 4.70, the “dose-response relationship (DRR)” value [1] was “good DRR” and the “First screening IR (inhibition rate)” value [2] was 72%. For the same compound, the “Second screening IR (inhibition rate)” value [2] was 50%.

`CCCC(C)c1cc(NC(=O)c2ccc(N3CCNC3=O)cc2)n[nH]1` (centres unmarked) [Compound Z1283491630] was tested, and the “dose-response relationship (DRR)” value [1] was “did not reveal a DRR”, the “"inhibition activity" in the whole range” value [1] was “around 50%” and the “First screening IR (inhibition rate)” value [2] was 29%. For the same compound, the “Second screening IR (inhibition rate)” value [2] was 49%.
